# In patent publication US20240132498A1, “CRYSTALLINE FORMS OF 5-(3,4-DIFLUOROBENZYL)-8-((1R,4R)-4-METHYLCYCLOHEXYL)-6,9-DIOXO-2,5,8-TRIAZASPIRO[3.5]NONANE-2-CARBALDEHYDE” (Cytokinetics, Incorporated, priority 2022, published 2024):
# “Also recorded” adds a separate entry of the source. Like-named read-outs stand apart in the source and are kept apart here.
# What was measured:
# CYP2D6 = target: T1, CYP2D6 (Homo sapiens, UniProt P10635); assay: Time-dependent inhibition of CYP450 enzymes in human liver microsomes: CYP2D6; assay type: in vitro ADME; conditions: for fold change in activity (time dependent inhibition), 2D6: human liver microsomes
# T1 construct: from tissue; host or cells: pooled human liver microsomes
# Method: An assessment of the time-dependent Inhibitory Potential of the test compounds against Principal Human Cytochrome P450 Isozymes using Human Liver Microsomes was also carried out using standard methods (Grimm et al, Drug Metab. Dispos., Jul; 37(7):1355-70. doi: 10.1124/dmd.109.026716, 2009). Pooled human microsomes and selective CYP probe substrates were used for in vitro assessment of test compounds at 25 and 50 μM as time-dependent inhibitors of […] human hepatic cytochrome P450 isozymes (CYP1A2, 2B6, 2C9, 2C19, 2D6, and 3A4). LC-MS/MS was used to quantify metabolite formation. The inhibition of each P450 enzyme in human liver microsomes was measured as the percentage decrease in the activity of marker metabolite formation as measured by LC-MS/MS compared to non-inhibited controls (=100% activity) at time zero and after 30 minutes incubation. The occurrence of any time dependent inhibition was then expressed as the fold change in enzyme activity at time zero relative to the activity after 30 minutes incubation. The time dependent inhibition for the compound 5-(3,4-difluorobenzyl)-8-((1 r,4r)-4-methylcyclohexyl)-6,9-dioxo-2,5, 8-triazaspiro [3.5]nonane-2-carbaldehyde (Compound 1) against CYP1A2, […], CYP2C8, CYP2C9, CYP2C19, CYP2D6, CYP3A4-M and CYP3A4-T is shown in Table B-12.
# [1] = Stability of Form II in solvents after 24 hours (HPLC); assay type: physicochemical; conditions: for Form II Peak Area T = 24 hours: 24 hours at ambient (25° C.); for Form II Peak Area: initial injection; for Visual Observations (signs of degradation in chromatograms): initial vs T = 24 hours;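 on Form II Peak Area T = 24 hours: same diluted solubility sample reinjected at the initial injection volume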
# Description: The chromatograms were then overlayed and visual signs of degradation were noted, i.e., loss of compound 1 peak area or increase of other peaks in the chromatography.
# [2] = Kinetic solubility of crystalline Form II in solvents; assay type: physicochemical; conditions: for solubility at 4 h: 25 °C, thermodynamic from solid; for Solubility: 25° C., 4 hours
# Method: The solubility of crystalline Form II was analyzed with 15 types of common solvents. Sufficient amount of Form II was suspended in 0.5 mL solvent for a maximum anticipated concentration of Ca. =10-100 mg/ml of the free Form II. The resulting suspensions were then shaken in a platform shaker at 25° C./ 750 rpm for 4 hours. After equilibration, the appearance was recorded, and the pH of the saturated solution was measured for aqueous samples only. Samples were then centrifuged for 5 minutes at 13.4 krpm before dilution with MeCN except for the samples that were initially diluted in n-heptane, which were then diluted in 2-propanol rather than MeCN.
# All diluted samples were then analyzed by HPLC. Samples were further diluted based on appearance and the maximum anticipated concentration […]. All diluted samples were injected at 10, 15 and 20 piL to obtain peak areas within the calibration curve as a diluted concentration of Ca. 0.1 mg/ml was trying to be achieved.
# Quantitation was measured by HPLC with reference to a standard solution of approximately 0.15 mg/ml in MeCN. Different volumes of the standard diluted and undiluted sample solutions were injected. The solubility was calculated using the peak areas determined by integration of the peak found at the same retention time as the principal peak in the standard injection.
# T1 sequence (P10635 whole entry): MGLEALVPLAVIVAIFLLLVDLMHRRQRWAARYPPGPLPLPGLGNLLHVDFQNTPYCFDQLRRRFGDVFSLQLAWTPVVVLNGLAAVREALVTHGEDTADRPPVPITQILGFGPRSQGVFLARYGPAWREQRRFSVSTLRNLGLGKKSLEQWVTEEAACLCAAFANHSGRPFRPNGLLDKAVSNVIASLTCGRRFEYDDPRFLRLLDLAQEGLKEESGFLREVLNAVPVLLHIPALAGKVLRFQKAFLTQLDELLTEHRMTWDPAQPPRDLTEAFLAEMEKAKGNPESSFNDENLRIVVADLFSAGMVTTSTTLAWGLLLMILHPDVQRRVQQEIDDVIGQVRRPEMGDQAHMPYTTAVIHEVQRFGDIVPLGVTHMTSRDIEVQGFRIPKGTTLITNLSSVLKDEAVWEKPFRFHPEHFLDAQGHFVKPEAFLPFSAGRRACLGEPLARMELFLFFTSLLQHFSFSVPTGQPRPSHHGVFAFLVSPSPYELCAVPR
structure (smiles),measurement,setting,value
"C[C@H]1CC[C@H](N2CC(=O)N(Cc3ccc(F)c(F)c3)C3(CN(C=O)C3)C2=O)CC1 [Compound 1, 5-(3,4-difluorobenzyl)-8-((1r,4r)-4-methylcyclohexyl)-6,9-dioxo-2,5,8-triazaspiro[3.5]nonane-2-carbaldehyde]",(% Activity NADPH T0)/(% Activity NADPH T30),"CYP2D6; CYP2D6, 25 μM",1.3
same,(% Activity NADPH T0)/(% Activity NADPH T30),"CYP2D6; CYP2D6, 50 μM",1.1
same,"fold change in activity (time dependent inhibition), 2D6",CYP2D6; 25 μM,1.3 fold
same,"fold change in activity (time dependent inhibition), 2D6",CYP2D6; 50 μM,no change in activity
same,"activity at 30 min, 25 µM","CYP2D6; human, pooled human liver microsomes, CYP2D6, 25 μM, 30 minutes incubation, read-out: % Activity NADPH T30",90%
same,"activity at 0 min, 25 µM","CYP2D6; human, pooled human liver microsomes, CYP2D6, 25 μM, time zero, read-out: % Activity NADPH T0",118%
same,"activity at 30 min, 50 µM","CYP2D6; human, pooled human liver microsomes, CYP2D6, 50 μM, 30 minutes incubation, read-out: % Activity NADPH T30",88%
same,"activity at 0 min, 50 µM","CYP2D6; human, pooled human liver microsomes, CYP2D6, 50 μM, time zero, read-out: % Activity NADPH T0",93%
"C[C@H]1CC[C@H](N2CC(=O)N(Cc3ccc(F)c(F)c3)C3(CN(C=O)C3)C2=O)CC1 [Form II, 5-(3,4-difluorobenzyl)-8-((1r,4r)-4-methylcyclohexyl)-6,9-dioxo-2,5,8-triazaspiro[3.5]nonane-2-carbaldehyde]",Form II Peak Area T = 24 hours,[1]; 2-BuOH,35.2
same,Form II Peak Area,[1]; 2-BuOH,35.3
same,Visual Observations (signs of degradation in chromatograms),[1]; 2-BuOH,No sign of degradation
same,Form II Peak Area T = 24 hours,[1]; 2-Me-THF,51.5
same,Form II Peak Area,[1]; 2-Me-THF,51.7
same,Visual Observations (signs of degradation in chromatograms),[1]; 2-Me-THF,No sign of degradation
same,Form II Peak Area T = 24 hours,[1]; Acetone,167.7
same,Form II Peak Area,[1]; Acetone,166.0
same,Visual Observations (signs of degradation in chromatograms),[1]; Acetone,no visual signs of further degradation; also recorded: No sign of degradation
same,Form II Peak Area T = 24 hours,[1]; DI Water,10.8
same,Form II Peak Area,[1]; DI Water,10.8
same,Visual Observations (signs of degradation in chromatograms),[1]; DI Water,No sign of degradation
same,Form II Peak Area T = 24 hours,[1]; DMSO,194.2
same,Form II Peak Area,[1]; DMSO,193.2
same,Visual Observations (signs of degradation in chromatograms),[1]; DMSO,no visual signs of further degradation; also recorded: No sign of degradation
same,Form II Peak Area T = 24 hours,[1]; EtOH,54.7
same,Form II Peak Area,[1]; EtOH,53.1
same,Visual Observations (signs of degradation in chromatograms),[1]; EtOH,"did not appear to degrade further; also recorded: Late eluting impurity peak, present"
same,Form II Peak Area T = 24 hours,[1]; IPA,30.5
same,Form II Peak Area,[1]; IPA,30.3
same,Visual Observations (signs of degradation in chromatograms),[1]; IPA,No sign of degradation
same,Form II Peak Area T = 24 hours,[1]; Isopropyl acetate,66.3
same,Form II Peak Area,[1]; Isopropyl acetate,66.6
same,Visual Observations (signs of degradation in chromatograms),[1]; Isopropyl acetate,did not seem to degrade further; also recorded: Impurities eluting after compound 1
same,Form II Peak Area T = 24 hours,[1]; MIBK,85.1
same,Form II Peak Area,[1]; MIBK,85.1
same,Visual Observations (signs of degradation in chromatograms),[1]; MIBK,No sign of degradation
same,Form II Peak Area T = 24 hours,[1]; MeCN,190.4
same,Form II Peak Area,[1]; MeCN,188.0
same,Visual Observations (signs of degradation in chromatograms),[1]; MeCN,no visual signs of further degradation; also recorded: No sign of degradation
same,Form II Peak Area T = 24 hours,[1]; MeOH,202.1
same,Form II Peak Area,[1]; MeOH,199.0
same,Visual Observations (signs of degradation in chromatograms),[1]; MeOH,no visual signs of further degradation; also recorded: No sign of degradation
same,Form II Peak Area T = 24 hours,[1]; THF,177.4
same,Form II Peak Area,[1]; THF,177.3
same,Visual Observations (signs of degradation in chromatograms),[1]; THF,no visual signs of further degradation; also recorded: No sign of degradation
same,Form II Peak Area T = 24 hours,[1]; Tert-Butylmetyl ether,24.7
same,Form II Peak Area,[1]; Tert-Butylmetyl ether,24.2
same,Visual Observations (signs of degradation in chromatograms),[1]; Tert-Butylmetyl ether,Large impurity peak eluting after
same,Form II Peak Area T = 24 hours,[1]; Toluene,40.5
same,Form II Peak Area,[1]; Toluene,41.2
same,Visual Observations (signs of degradation in chromatograms),[1]; Toluene,No sign of degradation
same,solubility at 4 h,"[2]; 2-BuOH, organic solvent or mixture, 2-BuOH, read-out: Average Solubility",11 mg/mL
same,solubility at 4 h,"[2]; 2-BuOH, organic solvent or mixture, 2-BuOH, single replicate, read-out: Solubility",11 mg/mL
same,solubility at 4 h,"[2]; 2-Me-THF, organic solvent or mixture, 2-Me-THF, read-out: Average Solubility",24 mg/mL
same,solubility at 4 h,"[2]; 2-Me-THF, organic solvent or mixture, 2-Me-THF, single replicate, read-out: Solubility",24 mg/mL
same,solubility at 4 h,"[2]; Acetone, organic solvent or mixture, Acetone, single replicate, read-out: Solubility",> 101 mg/mL
same,solubility at 4 h,"[2]; DI Water, pH 8.7, water, DI Water, final pH 8.7, read-out: Average Solubility",~0.41 mg/mL
same,solubility at 4 h,"[2]; DI Water, pH 8.7, water, DI Water, final pH 8.7, single replicate, read-out: Solubility",0.5 mg/mL
same,Solubility,"[2]; DI Water, final pH 8.7, single replicate",0.31 mg/mL
same,solubility at 4 h,"[2]; DMSO, organic solvent or mixture, DMSO, read-out: Average Solubility",> 100 mg/mL
same,solubility at 4 h,"[2]; DMSO, organic solvent or mixture, DMSO, single replicate, read-out: Solubility",> 101 mg/mL
same,Solubility,"[2]; DMSO, single replicate",>101.2 mg/mL
same,solubility at 4 h,"[2]; EtOH, organic solvent or mixture, EtOH, read-out: Average Solubility",~24 mg/mL
same,solubility at 4 h,"[2]; EtOH, organic solvent or mixture, EtOH, single replicate, read-out: Solubility",25 mg/mL
same,Solubility,"[2]; EtOH, single replicate",23 mg/mL
same,solubility at 4 h,"[2]; IPA, organic solvent or mixture, IPA, read-out: Average Solubility",9.8 mg/mL
same,solubility at 4 h,"[2]; IPA, organic solvent or mixture, IPA, single replicate, read-out: Solubility",9.8 mg/mL
same,solubility at 4 h,"[2]; Isopropyl acetate, organic solvent or mixture, Isopropyl acetate, single replicate, read-out: Solubility",22 mg/mL
same,solubility at 4 h,"[2]; MIBK, organic solvent or mixture, MIBK, read-out: Average Solubility",39 mg/mL
same,solubility at 4 h,"[2]; MIBK, organic solvent or mixture, MIBK, single replicate, read-out: Solubility",39 mg/mL
same,solubility at 4 h,"[2]; MeCN, organic solvent or mixture, MeCN, read-out: Average Solubility",> 100 mg/mL
same,solubility at 4 h,"[2]; MeCN, organic solvent or mixture, MeCN, single replicate, read-out: Solubility",> 101 mg/mL
same,Solubility,"[2]; MeCN, single replicate",>100.6 mg/mL
same,solubility at 4 h,"[2]; MeOH, organic solvent or mixture, MeOH, read-out: Average Solubility",> 100 mg/mL
same,solubility at 4 h,"[2]; MeOH, organic solvent or mixture, MeOH, single replicate, read-out: Solubility",> 100 mg/mL
same,Solubility,"[2]; MeOH, single replicate",>100.6 mg/mL
same,solubility at 4 h,"[2]; THF, organic solvent or mixture, THF, read-out: Average Solubility",> 100 mg/mL
same,solubility at 4 h,"[2]; THF, organic solvent or mixture, THF, single replicate, read-out: Solubility",> 102 mg/mL
same,Solubility,"[2]; THF, single replicate",>101.2 mg/mL
same,solubility at 4 h,"[2]; Tert-Butylmethyl ether, organic solvent or mixture, Tert-Butylmethyl ether, read-out: Average Solubility",1.12 mg/mL
same,solubility at 4 h,"[2]; Tert-Butylmethyl ether, organic solvent or mixture, Tert-Butylmethyl ether, single replicate, read-out: Solubility",1.12 mg/mL
same,solubility at 4 h,"[2]; Toluene, organic solvent or mixture, Toluene, read-out: Average Solubility",9.6 mg/mL
same,solubility at 4 h,"[2]; Toluene, organic solvent or mixture, Toluene, single replicate, read-out: Solubility",9.5 mg/mL
same,Solubility,"[2]; Toluene, single replicate",9.6 mg/mL
same,solubility at 4 h,"[2]; acetone, organic solvent or mixture, Acetone, read-out: Average Solubility",> 100 mg/mL
same,solubility at 4 h,"[2]; isopropyl acetate, organic solvent or mixture, Isopropyl acetate, read-out: Average Solubility",22 mg/mL
